Source: the NIST ThermoML archive (doi:10.1021/je500696p)
Numbers after ± are expanded uncertainties.

Legend:
[1] = xn = mol fraction of the nth substance listed; conditions: 100 kPa, Liquid, Vibrating tube method, x1 = 1
[2] = excess molar enthalpy (molar enthalpy of mixing); xn = mol fraction of the nth substance listed; conditions: 308.15 K, 100 kPa, Liquid, Calvet calorimetry

SMILES	mass density ([1]; 293.15 K)	mass density ([1]; 295.15 K)	mass density ([1]; 298.15 K)	mass density ([1]; 303.15 K)	mass density ([1]; 308.15 K)	mass density ([1]; 313.15 K)	mass density ([1]; 318.15 K)	mass density ([1]; 323.15 K)	mass density ([1]; 328.15 K)	mass density ([1]; 333.15 K)	other results
CCCO [propan-1-ol] + CCCC[N+](C)(C)C.O=S(=O)([N-]S(=O)(=O)C(F)(F)F)C(F)(F)F	803.6 ± 2.4 kg/m3	802.1 ± 2.4 kg/m3	799.7 ± 2.4 kg/m3	795.6 ± 2.4 kg/m3	791.6 ± 2.4 kg/m3	787.5 ± 2.4 kg/m3	783.4 ± 2.4 kg/m3	779.2 ± 2.3 kg/m3	774.9 ± 2.3 kg/m3	770.6 ± 2.3 kg/m3	–
CCCC[N+](C)(C)C.O=S(=O)([N-]S(=O)(=O)C(F)(F)F)C(F)(F)F [butyltrimethylammonium bis(trifluoromethylsulfonyl)imide] + C[S+](C)[O-]	–	–	–	–	–	–	–	–	–	–	excess molar enthalpy ([2]; x2 = 0.1288): -0.027 ± 0.00717 kcal/mol; excess molar enthalpy ([2]; x2 = 0.2255): -0.0416 ± 0.00717 kcal/mol; excess molar enthalpy ([2]; x2 = 0.2609): -0.0459 ± 0.00717 kcal/mol; excess molar enthalpy ([2]; x2 = 0.3095): -0.0511 ± 0.00717 kcal/mol; excess molar enthalpy ([2]; x2 = 0.3626): -0.0593 ± 0.00717 kcal/mol; excess molar enthalpy ([2]; x2 = 0.4382): -0.0629 ± 0.00717 kcal/mol; excess molar enthalpy ([2]; x2 = 0.4941): -0.0667 ± 0.00717 kcal/mol; excess molar enthalpy ([2]; x2 = 0.4983): -0.0638 ± 0.00717 kcal/mol; excess molar enthalpy ([2]; x2 = 0.5007): -0.0643 ± 0.00717 kcal/mol; excess molar enthalpy ([2]; x2 = 0.559): -0.0684 ± 0.00717 kcal/mol; excess molar enthalpy ([2]; x2 = 0.5642): -0.0679 ± 0.00717 kcal/mol; excess molar enthalpy ([2]; x2 = 0.5646): -0.0691 ± 0.00717 kcal/mol; excess molar enthalpy ([2]; x2 = 0.6132): -0.0629 ± 0.00717 kcal/mol; excess molar enthalpy ([2]; x2 = 0.6267): -0.0619 ± 0.00717 kcal/mol; excess molar enthalpy ([2]; x2 = 0.7533): -0.0399 ± 0.00717 kcal/mol; excess molar enthalpy ([2]; x2 = 0.7693): -0.037 ± 0.00717 kcal/mol; excess molar enthalpy ([2]; x2 = 0.8684): -0.0155 ± 0.00717 kcal/mol
CCO [ethanol] + CCCC[N+](C)(C)C.O=S(=O)([N-]S(=O)(=O)C(F)(F)F)C(F)(F)F	789.6 ± 3.2 kg/m3	787.9 ± 3.2 kg/m3	785.3 ± 3.1 kg/m3	781 ± 3.1 kg/m3	776.7 ± 3.1 kg/m3	772.3 ± 3.1 kg/m3	767.9 ± 3.1 kg/m3	763.5 ± 3.1 kg/m3	758.9 ± 3 kg/m3	754.4 ± 3 kg/m3	–
CN(C)C=O [dimethylformamide] + CCCC[N+](C)(C)C.O=S(=O)([N-]S(=O)(=O)C(F)(F)F)C(F)(F)F	948.7 ± 2.8 kg/m3	946.8 ± 2.8 kg/m3	943.9 ± 2.8 kg/m3	939.1 ± 2.8 kg/m3	934.4 ± 2.8 kg/m3	929.6 ± 2.8 kg/m3	924.8 ± 2.8 kg/m3	920 ± 2.8 kg/m3	915.2 ± 2.7 kg/m3	910.4 ± 2.7 kg/m3	–
